From US20180111913A1, “SUBSTITUTED BENZOFURAN DERIVATIVES AS NOVEL ANTIMYCOBACTERIAL AGENTS” (priority 2015, published 2018)
≈ marks a conversion by molar mass, not a printed value. Where two headings read alike, the source gives them in different places.

Tests used:
[1] = molecular target: Mtb Pks13-TE domain (wild-type) (Mycobacterium tuberculosis, UniProt I6X8D2); experiment: biochemical; assay type: biochemical
[2] = test system: human dermal fibroblast (HDF) cells
[3] = test system: Mtb strain mc^27000; experiment: microbe, parasite or virus in culture; assay type: cell-based, Mycobacterium tuberculosis
[4] = Pks13-TE, 20 μM 4-MUH, read-out: IC50
[5] = Mycobacterium tuberculosis, read-out: percentage inhibition observed (incomplete inhibition)
[6] = Mycobacterium tuberculosis, Mtb mc^27000, liquid medium, 96-well plates, read-out: MIC
[7] = Mtb mc^27000, liquid medium, 96-well plates, read-out: MIC

Mtb Pks13-TE domain (wild-type), sequence (I6X8D2 1451-1733): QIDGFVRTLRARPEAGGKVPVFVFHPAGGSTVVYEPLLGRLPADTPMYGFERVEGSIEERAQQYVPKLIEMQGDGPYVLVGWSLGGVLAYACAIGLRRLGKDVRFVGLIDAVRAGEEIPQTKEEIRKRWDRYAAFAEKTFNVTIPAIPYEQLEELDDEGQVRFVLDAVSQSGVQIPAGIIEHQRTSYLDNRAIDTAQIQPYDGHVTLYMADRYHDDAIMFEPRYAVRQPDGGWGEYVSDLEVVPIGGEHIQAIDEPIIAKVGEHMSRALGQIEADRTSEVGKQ

Structure (SMILES) | IC50 [1, 4] [µM] | MIC [3, 6] [µM] | also measured
CCOC(=O)c1c(-c2ccc(F)cc2)oc2cc(O)cc(CCNS(C)(=O)=O)c12 [compound 74] |  |  | IC50 ([1]; Pks13 enzyme inhibition, read-out: Pks13 IC50): 20 µM; Survival vs. Control ([2]; HDF cell survival relative to DMSO-only control at the first (or only) Non-Toxic Concentration value): 88%; Non-Toxic Concentration ([2]; human, 48 h): 25 µM
CNC(=O)c1c(-c2ccccc2)oc2cc(OCC(=O)OC)cc(CN3CCCCC3)c12 [compound 93] | 10 |  | inhibition at 40 µM ([3]; Mycobacterium tuberculosis, at 40 μM, read-out: percentage inhibition observed (incomplete inhibition)): 16%
CCOC(=O)c1c(-c2ccccc2)oc2ccc(O)c(CN3CCC(N4CCCCC4)CC3)c12 [compound 98] | > 20 |  | inhibition at 20 µM [3, 5]: 40%
OCc1c(-c2ccccc2)oc2ccc(O)c(CN3CCC(N4CCCCC4)CC3)c12 [compound 99] |  |  | IC50 ([1]; Pks13-TE, read-out: IC50 (μM), given as NB / NI): > 20 µM; inhibition at 20 µM [3, 5]: 28%
O=S(=O)(Nc1ccc2oc(-c3ccccc3)cc2c1CN1CCC(N2CCCCC2)CC1)C(F)(F)F [compound 100] | > 40 |  | inhibition at 20 µM [3, 5]: 6%
COC(=O)c1c(-c2ccccc2)oc2ccc(O)c(CCCN3CCCC3)c12 [compound 104] | 2 | 1.8 (≈ 0.683 µg/mL) | 
CNC(=O)c1c(-c2ccccc2)oc2ccc(O)c(CCCN3CCCC3)c12 [compound 105] | 5 | 5 (≈ 1.89 µg/mL) | 
COC(=O)n1c(-c2ccccc2)c(Br)c2cccc(CN3CCCCC3)c21 [compound 108] | 2 |  | inhibition at 20 µM [3, 5]: 26%
CCOC(=O)c1c(-c2ccccc2)oc2ccc(O)c(CN(C)C)c12 [compound 109] | 1.57 ± 0.15 |  | IC50 ([1]; Mtb Pks13-TE domain, mean ± s.d. of triplicates, read-out: IC50): 1.57 ± 0.15 µM; loss of inhibitory activity / higher IC50 against Pks13-TE compared to the test compound ([1]; relative to test compound): > 6 fold; higher MIC compared to the test compound [3]: 3 fold; MIC ([3]; Mtb mc^27000, liquid medium, 96-well plates): 7.3 ± 0.3 µM (≈ 2.48 µg/mL); MIC ([3]; […], mean ± s.d. of triplicates, NI: no inhibition): 7.3 ± 0.3 µM (≈ 2.48 µg/mL)
Oc1ccc2nc(-c3ccccc3)[nH]c2c1CN1CCCC1 [compound 110] | 6.8 | 22 (≈ 6.45 µg/mL) | 
CNC(=O)c1c(-c2cccnc2)oc2ccc(OC)c(CN3CCCCC3)c12 [compound 112] | 35.8 | > 40 | 
CCOC(=O)c1c(-c2ccccc2)oc2ccc(O)c(CN3CCC(O)CC3)c12 [compound 117] | 0.18 | 5.6 (≈ 2.21 µg/mL) | 
CNC(=O)c1c(-c2ccc(O)cc2)oc2ccc(O)c(CN3CCC(O)CC3)c12 [compound 120] | 0.5 | 4.2 (≈ 1.67 µg/mL) | 
CNC(=O)c1c(-c2ccc(O)cc2)oc2ccc(O)c(CN3CCC(CO)CC3)c12 [compound 121] | 0.6 | 40 (≈ 16.4 µg/mL) | 
CNC(=O)c1c(-c2ccc(O)cc2)oc2ccc(O)c(CN3CCC(CO)C3)c12 (stereo not drawn) [compound 122] | 0.51 | 1 (≈ 0.396 µg/mL) | 
CNC(=O)c1c(-c2ccc(O)cc2)oc2ccc(O)c(CN3CCC(C(N)=O)CC3)c12 [compound 123] | 1.6 | > 40 | 
CNC(=O)c1c(-c2ccc(O)cc2)oc2ccc(O)c(CN3CCC(C#N)CC3)c12 [compound 124] | 0.25 | 20 (≈ 8.11 µg/mL) | 
NC(=O)c1c(-c2ccc(O)cc2)oc2ccc(O)c(CN3CCCCC3)c12 [compound 125] | 0.17 | 1.3 (≈ 0.476 µg/mL) | 
CNC(=O)c1c(-c2ccc(O)cc2)oc2ccc(O)c(CN3CCCC(CO)C3)c12 (stereo not drawn) [compound 127] | 1.1 | 5 (≈ 2.05 µg/mL) | 
CNC(=O)c1c(-c2ccc(O)cc2)oc2ccc(O)c(CNC3CCCC3)c12 [compound 128] | 1 | 1 (≈ 0.38 µg/mL) | 
CCOC(=O)c1c(-c2ccccc2)oc2ccc(O)c(CN3CCCC(CO)C3)c12 (stereo not drawn) [compound 132] | 0.42 |  | MIC [3, 7]: 10 µM (≈ 4.09 µg/mL)
CCOC(=O)c1c(-c2ccc(O)cc2)oc2ccc(O)c(CN3CCCC(CO)C3)c12 (stereo not drawn) [compound 134] | 0.4 | 2.5 (≈ 1.06 µg/mL) | 
CNC(=O)c1c(-c2ccccc2)oc2ccc(O)c(CN3CCCC(CO)C3)c12 (stereo not drawn) [compound 135] | 2 | 0.5 (≈ 0.197 µg/mL) | 
CCOC(=O)c1c(-c2ccccc2)oc2cc(O)cc(CCN)c12 [compound 136] | > 20 |  | MIC [3, 7]: 4 µM (≈ 1.3 µg/mL)
CNC(=O)c1c(-c2ccccc2)oc2ccc(O)c(CCNC3CCCC3)c12 [compound 141] | 1.4 |  | MIC [3, 7]: 10.0 µM (≈ 3.78 µg/mL)

Structure (SMILES) | IC50 [1, 4] [µM] | MIC [3, 6] [µM] | also measured
CCOC(=O)c1c(-c2ccccc2)oc2ccc(O)c(CCN3CCCC(O)C3)c12 (stereo not drawn) [compound 151] | 10 |  | MIC [3, 7]: >20 µM
CCOC(=O)CCCC1CCN(CCCc2c(O)ccc3oc(-c4ccccc4)c(C(=O)OCC)c23)C1 (stereo not drawn) [compound 161] | 0.8 |  | MIC [3, 7]: 1.0 µM (≈ 0.508 µg/mL)
CCOC(=O)c1c(-c2ccccc2)oc2ccc(O)c(CCCN3CCC(CCCO)C3)c12 (stereo not drawn) [compound 162] | 2.7 | 2.5 (≈ 1.13 µg/mL) | 
CCOC(=O)c1c(-c2ccccc2)oc2ccc(O)c(CCCN3CCC3)c12 [compound 165] | 0.8 | 0.08 (≈ 0.0304 µg/mL) | 
CCOC(=O)c1c(-c2ccccc2)oc2ccc(O)c(CCCN3CCC(CO)CC3)c12 [compound 166] | 0.5 | 6.1 (≈ 2.67 µg/mL) | 
CCOC(=O)/C=C/CC1CCN(CCCc2c(O)ccc3oc(-c4ccccc4)c(C(=O)OCC)c23)C1 (stereo not drawn) [compound 171] | 0.5 | 2.7 (≈ 1.37 µg/mL) | 
CCOC(=O)CCCC1CCN(CCCc2c(O)ccc3oc(-c4ccccc4)c(C(=O)OCC)c23)C1 (stereo not drawn) [compound 172] | 0.7 | 2.9 (≈ 1.47 µg/mL) | 
CCOC(=O)c1c(-c2ccccc2)oc2ccc(O)c(CCCN3CCSC3C)c12 (stereo not drawn) [compound 174] | 1.25 | 4.7 (≈ 2 µg/mL) | 
CCOC(=O)c1c(-c2ccccc2)oc2ccc(O)c(CCCN3CC[C@@H](O)C3)c12 [compound 175] | 0.95 | 6.1 (≈ 2.5 µg/mL) | 
CCOC(=O)c1c(-c2ccccc2)oc2ccc(O)c(CCCN3CC[C@H](O)C3)c12 [compound 186] | 0.62 | 10 (≈ 4.09 µg/mL) | 
CCOC(=O)c1c(-c2ccccc2)oc2ccc(O)c(CCCN3CC(F)C3)c12 [compound 199] | 2.5 | 1.2 (≈ 0.477 µg/mL) | 
CNC(=O)c1c(-c2ccccc2)oc2ccc(O)c(CCCN3CCC3)c12 [compound 200] | 4.4 | 0.6 (≈ 0.219 µg/mL) | 
CCOC(=O)c1c(-c2ccc(O)cc2)oc2ccc(O)c(CCCN3CCC3)c12 [compound 201] | 2.1 | < 0.08 | 
CNC(=O)c1c(-c2ccc(O)cc2)oc2ccc(O)c(CCCN3CCC3)c12 [compound 202] | 1.6 | 15 (≈ 5.71 µg/mL) | 
CC(C)NCCc1c(O)ccc2oc(-c3ccc(O)cc3)c(C(=O)N(C)C)c12 [compound 209] | 1.8 |  | MIC [3, 7]: 0.45 µM (≈ 0.172 µg/mL)
CCOC(=O)c1c(-c2ccccc2)oc2ccc(O)c(CCCN3CC[C@@H]3CO)c12 [compound 212] | 1.94 | 1.1 (≈ 0.45 µg/mL) | 
CCOC(=O)c1c(-c2ccccc2)oc2ccc(O)c(CCCN3CC[C@H]3CO)c12 [compound 213] | 2.3 |  | MIC [3, 7]: 0.97 µM (≈ 0.397 µg/mL)
CCOC(=O)c1c(-c2ccccc2)oc2ccc(O)c(CCN3CCC(C#N)CC3)c12 [compound 228] | 3.6 | 5 (≈ 2.09 µg/mL) | 
CCOC(=O)c1c(-c2ccccc2)oc2ccc(O)c(CCN3CCOCC3)c12 [compound 229] | 5.8 | 3.2 (≈ 1.27 µg/mL) | 
CNC(=O)c1c(-c2ccccc2)oc2ccc(O)c(CCN3CC[C@H](Br)C3)c12 [compound 231] | 5 | 8 (≈ 3.55 µg/mL) | 
CC[C@H](CO)NCCc1c(O)ccc2oc(-c3ccccc3)c(C(=O)NC)c12 [compound 234] | 5.3 | > 20 | 
CC[C@@H](CO)NCCc1c(O)ccc2oc(-c3ccccc3)c(C(=O)NC)c12 [compound 235] | 2.3 | > 40 | 
CCOC(=O)c1c(-c2ccccc2)oc2ccc(O)c(CCN3CCCC3C(=O)O)c12 (stereo not drawn) [compound 244] | > 40 | 20 to 40 (≈ 8.47 to 16.9 µg/mL) | 
CCOC(=O)c1c(-c2ccccc2)oc2ccc(O)c(CCN[C@@H](Cc3c[nH]cn3)C(=O)O)c12 [compound 245] | 2.7 | > 40 | 
CNC(=O)c1c(-c2ccc(F)cc2)oc2cc(O)cc(CCN[C@H](CO)Cc3cnc[nH]3)c12 [compound 261] | 5 | 5 (≈ 2.26 µg/mL) | 
